Source: patent US20260027214A1, “PHARMACEUTICAL COMPOSITION FOR TREATING OR PREVENTING INFLAMMATION CAUSED BY ACANTHAMOEBA” (priority 2022, published 2026)

Key:
Acanthamoeba polyphaga [1] = assay: Adhesion test: Acanthamoeba adhered to polypropylene test pieces after 60 min immersion; assay type: cell-based
Method: (§1) An Acanthamoeba solution containing 1×10^5 Acanthamoeba per mL of solution was prepared by dispersing Acanthamoeba (Acanthamoeba polyphaga, obtained from American Type Culture Collection (ATCC), 30872™) in phosphate-buffered saline as solvent.
(§2) The polypropylene test pieces used in the adhesion test described below were polypropylene from Johoku Co., Ltd., product number: PP_A3, cut to dimensions of 15 mm length×15 mm width×0.25 mm thickness from original dimensions of 320 mm length×440 mm width×0.25 mm thickness for each experiment.
(§3) To verify the anti-adhesive properties and antiprotozoal activity of the lysozyme-chitosan complex (LYZOX (registered trademark)), adhesion tests and cell death tests were conducted.
(§4) Specifically, the above-mentioned Acanthamoeba solution was added to the above-mentioned lysozyme-chitosan complex (LYZOX (registered trademark)) solution to prepare mixed solutions containing 0.1 μg, 1 μg, 10 μg, 100 μg, and 1000 μg of lysozyme-chitosan complex per 1 mL of mixed solution. Separately, a control solution with 0 μg/mL concentration containing no lysozyme-chitosan complex was prepared. The same sterilized water used in preparing the lysozyme-chitosan complex was used as dilution liquid for concentration adjustment. All six solutions contained 1×10^5 Acanthamoeba per 1 mL of solution.
(§5) The above-mentioned polypropylene test pieces were immersed in the prepared mixed solutions and left standing; after 60 minutes of immersion, the test pieces were removed from the mixed solutions, washed with phosphate-buffered saline (PBS, obtained from FUJIFILM Wako Pure Chemical Corporation, product number: 166-23555), and dried. The surface of the obtained test pieces was observed under a biological microscope (obtained from Nikon, product number: ECLIPSE E-200), and Acanthamoeba adhered within a 5×5 mm observation area on the test piece surface were counted. Subsequently, trypan blue was applied to the observation area, staining dead Acanthamoeba, and the number of dead Acanthamoeba was counted.
(§6) Acanthamoeba were counted and the total number of adhered Acanthamoeba, number of dead Acanthamoeba, and Acanthamoeba mortality rate were measured in the same manner as Experimental Example 1, except that the mixture solution of lysozyme and chitosan (Table 2), lysozyme alone (Table 3), and chitosan alone (Table 4) described above were used instead of the lysozyme-chitosan complex (LYZOX (registered trademark)) solution of Experimental Example 1.

Acanthamoeba polyphaga [2] = assay: Cell death test: trypan blue staining of adhered Acanthamoeba; assay type: cell-based; conditions: for Acanthamoeba mortality rate: 60 min immersion, 1×10^5 Acanthamoeba/mL; for Acanthamoeba inhibition effects (antiprotozoal effects): in words, compared with complex at 100 μg/mL and 1000 μg/mL
Method: as §1, §2, §3, §4, §5, §6

| Substance | Total number of adhered Acanthamoeba (Acanthamoeba polyphaga [1]; 0.05 μg/mL, 1×10^5 Acanthamoeba/mL (Table 4)) [count/mm2] | Total number of adhered Acanthamoeba (Acanthamoeba polyphaga [1]; 0.5 μg/mL, 1×10^5 Acanthamoeba/mL (Table 4)) [count/mm2] | Total number of adhered Acanthamoeba (Acanthamoeba polyphaga [1]; 5 μg/mL, 1×10^5 Acanthamoeba/mL (Table 4)) [count/mm2] | Total number of adhered Acanthamoeba (Acanthamoeba polyphaga [1]; 50 μg/mL, 1×10^5 Acanthamoeba/mL (Table 4)) [count/mm2] | Total number of adhered Acanthamoeba (Acanthamoeba polyphaga [1]; 500 μg/mL, 1×10^5 Acanthamoeba/mL (Table 4)) [count/mm2] | Acanthamoeba mortality rate (Acanthamoeba polyphaga [2]; 0.05 μg/mL) [%] | Acanthamoeba mortality rate (Acanthamoeba polyphaga [2]; 0.5 μg/mL) [%] | Acanthamoeba mortality rate (Acanthamoeba polyphaga [2]; 5 μg/mL) [%] | Acanthamoeba mortality rate (Acanthamoeba polyphaga [2]; 50 μg/mL) [%] | Acanthamoeba mortality rate (Acanthamoeba polyphaga [2]; 500 μg/mL) [%] | Acanthamoeba inhibition effects (antiprotozoal effects) (Acanthamoeba polyphaga [2]) | Total number of adhered Acanthamoeba (Acanthamoeba polyphaga [1]; 0.05 μg/mL, 1×10^5 Acanthamoeba/mL) [count/mm^2] | Total number of adhered Acanthamoeba (Acanthamoeba polyphaga [1]; 0.5 μg/mL, 1×10^5 Acanthamoeba/mL) [count/mm^2] | Total number of adhered Acanthamoeba (Acanthamoeba polyphaga [1]; 5 μg/mL, 1×10^5 Acanthamoeba/mL) [count/mm^2] | Total number of adhered Acanthamoeba (Acanthamoeba polyphaga [1]; 50 μg/mL, 1×10^5 Acanthamoeba/mL) [count/mm^2] | Total number of adhered Acanthamoeba (Acanthamoeba polyphaga [1]; 500 μg/mL, 1×10^5 Acanthamoeba/mL) [count/mm^2] |
| --- | --- | --- | --- | --- | --- | --- | --- | --- | --- | --- | --- | --- | --- | --- | --- | --- |
| poly-β1→4-glucosamine [Chitosan] | 108 | 89.2 | 82.1 | 65.3 | 49.7 | 3.5 | 3.8 | 3.9 | 7.9 | 37.4 | incomplete | – | – | – | – | – |
| Lysozyme: egg white lysozyme with molecular weight of approximately 14300 (Biocon (Japan) Ltd.) | – | – | – | – | – | – | – | – | – | – | incomplete | 119 | 94.2 | 87.2 | 67.8 | 42.1 |
